How the values were obtained:
[1] = cited from earlier work
[2] = humans, cited from earlier work
[3] = tested on: stromal proteins; settings: cited from earlier work
[4] = in vivo
Source text: In the specification, the terms ‘eye-acceptable’ and ‘acceptable to the eye’ (as well as similar terms) are intended to mean that no lachrymatory effect is seen and/or no irritation of, and/or damage to, the surface of the eye (cornea) and/or the surrounds of the eye (the lids, tear ducts etc.) and/or the deeper structures within the eye (lens, muscles etc.).

maximum concentration which is acceptable in and to the eye [4] [v/v %] | Compound | solubility in chloroform ([1]; chloroform) | solubility in diluted (50%) alcohol ([1]; diluted (50%) alcohol) | solubility in ether ([1]; ether) | solubility in pyridine ([1]; pyridine) | solubility in water ([1]; water) | bioavailability ([2]; calculated from an oral dosage form) | half-life ([2]; oral dosage form) [h] | toxic effect on stromal proteins [3]
 | C[C@H]1O[C@@H](O[C@H]2[C@@H](O)C[C@H](O[C@H]3[C@@H](O)C[C@H](O[C@H]4CC[C@@]5(C)[C@H](CC[C@@H]6[C@@H]5C[C@@H](O)[C@]5(C)[C@@H](C7=CC(=O)OC7)CC[C@]65O)C4)O[C@@H]3C)O[C@@H]2C)C[C@H](O)[C@@H]1O [Digoxin] | slightly soluble | slightly soluble | practically insoluble | freely soluble | practically insoluble | about 80% | 42 | 
2.5 | CCO [ethanol] |  |  |  |  |  |  |  | direct toxic effect
